The results in this text go back to ChEMBL document CHEMBL1932922, “Synthesis, antitubercular evaluation and 3D-QSAR study of N-phenyl-3-(4-fluorophenyl)-4-substituted pyrazole derivatives” (Bioorg Med Chem Lett, 2012).

A value given as a limit tells only on which side of the number the result lay.

The subject of the experiment is Mycobacterium tuberculosis. The experiment in a line: Antituberculosis activity against Mycobacterium tuberculosis H37Rv ATCC 27294 by modified BACTEC 460 method. Type of experiment: functional, organism-based. The following applies: for IC90 / IC50: Mycobacterium tuberculosis, H37Rv ATCC 27294.

In turn, `Nc1nc(-c2ccccc2)cc(-c2cn(-c3ccccc3)nc2-c2ccc(F)cc2)n1` registered a pIC90 of 5 and an IC90 of 9.94 µM. Besides, the IC50 (read-out: IC50) turned out to be 5.94 µM. The IC50 (read-out: pIC50 (converted)) is 5.89 µM.
`Nc1nc(-c2ccc(Cl)cc2)cc(-c2cn(-c3ccccc3)nc2-c2ccc(F)cc2)n1` came in with a pIC90 of less than 3.65 and an IC90 of more than 226 µM. Further, the IC50 (read-out: IC50) worked out at 95.5 µM. Besides, the IC50 (read-out: pIC50 (converted)) was 95.5 µM.
For `Fc1ccc(-c2nn(-c3ccccc3)cc2-c2cc(-c3cccs3)nc(=S)[nH]2)cc1`, the pIC90 is given as 4.06 and the IC90 is 86.4 µM. Further, the IC50 (read-out: IC50) amounted to 22.6 µM. For the same molecule, where the note is “read-out: pIC50 (converted)”, the IC50 was 22.4 µM.
In the same order, the values of `Nc1nc(-c2ccc(F)cc2)cc(-c2cn(-c3ccccc3)nc2-c2ccc(F)cc2)n1` are 4.07, 84.3 µM, 36.8 µM and 37.2 µM.
In the same order, the values of `Nc1nc(-c2ccc(O)cc2)cc(-c2cn(-c3ccccc3)nc2-c2ccc(F)cc2)n1` are 6.05, 0.88 µM, 0.47 µM and 0.468 µM.
Turning to `Nc1nc(-c2ccccc2O)cc(-c2cn(-c3ccccc3)nc2-c2ccc(F)cc2)n1`, the pIC90 stood at 4.18 and the IC90 was 65.9 µM. The IC50 (read-out: IC50) came to 57 µM. Under “read-out: pIC50 (converted)”, the IC50 is 57.5 µM.
In the same order, the values of `Nc1nc(-c2ccc([N+](=O)[O-])cc2)cc(-c2cn(-c3ccccc3)nc2-c2ccc(F)cc2)n1` are less than 3.66, more than 220 µM, 75.4 µM and 75.9 µM.
In the same order, the values of `Nc1nc(-c2cccc([N+](=O)[O-])c2)cc(-c2cn(-c3ccccc3)nc2-c2ccc(F)cc2)n1` are less than 3.66, more than 220 µM, 52.9 µM and 52.5 µM.
For `Nc1nc(-c2ccc(Br)cc2)cc(-c2cn(-c3ccccc3)nc2-c2ccc(F)cc2)n1`, in that order: 4.84, 14.5 µM, 10.6 µM and 10.7 µM.
Molecule `Nc1ccc(-c2cc(-c3cn(-c4ccccc4)nc3-c3ccc(F)cc3)nc(N)n2)cc1` had a pIC90 of 4.82 and an IC90 of 15 µM. Also, the IC50 (read-out: IC50) was found to be 13.8 µM. The IC50 (read-out: pIC50 (converted)) is 13.8 µM.

In general, IC90 refers to the concentration needed for an effect of 90%.
